From patent US4352803A, “Novel naphthyridine derivatives, intermediates thereof, processes for preparation thereof, and use thereof” (Dainippon Pharmaceutical Co., Ltd., priority 1978, dated 1982)
≈ marks a conversion by molar mass, not a printed value. Read-outs that look alike come from different tables or passages of the source.

Assays:
Escherichia coli P-140a = assay: In vitro antibacterial activity (MIC), Escherichia coli P-140a; type: cell-based; settings: read-out: minimum inhibitory concentration (MIC)
Text: (§1) (MIC) (μg/ml) Method; Chemotherapy, 22(6), 1126 (1974)

[1] = system: Salmonella enteritidis No. 1891; assay: In vitro antibacterial activity (MIC), Salmonella enteritidis No. 1891; type: cell-based; settings: Salmonella enterica; Salmonella enteritidis No. 1891; read-out: minimum inhibitory concentration (MIC)
Text: as §1

[2] = system: Enterobacter cloacae P-2540; assay: In vitro antibacterial activity (MIC), Enterobacter cloacae P-2540; type: cell-based
Text: as §1

Escherichia coli P-5101 [3] = assay: in vivo efficacy against systemic infection in mice, Escherichia coli P-5101; settings: P5101, in Mus musculus, po, 168 h
Procedure: Male mice (ddY) weighing about 20 g
Intraperitoneal infection with (about
9 × 10^6 cells/mouse) of a bacterial
(§2) suspension in trypto-soy broth with 4% mucin.
(§3) Twice, about 5 minutes and 6 hours after infection.

[4] = system: Pseudomonas aeruginosa Tsuchijima; assay: In vitro antibacterial activity (MIC), Pseudomonas aeruginosa Tsuchijima; type: cell-based; settings: read-out: minimum inhibitory concentration (MIC)
Text: as §1

[5] = system: Shigella flexneri 4a P-330; assay: In vitro antibacterial activity (MIC), Shigella flexneri 4a P-330; type: cell-based; settings: 4AP330, read-out: minimum inhibitory concentration (MIC)
Text: as §1

[6] = system: Corynebacterium pyogenes C-21; assay: In vitro antibacterial activity (MIC), Corynebacterium pyogenes C-21; type: cell-based; settings: Rhodococcus (subgen. Prescottella) equi, C21; Corynebacterium pyogenes C-21; read-out: minimum inhibitory concentration (MIC)
Text: as §1

[7] = system: Pseudomonas aeruginosa No. 12; assay: in vivo efficacy on the ascending kidney infection in mice; parameters: species or system mice (ddY-S); settings: for ED50: 120 h, ascending kidney infection with Pseudomonas aeruginosa No. 12, po, mice
Procedure: Female mice (ddY-S) weighing 22 to 30 g were anesthetized by intravenous injection of sodium pentobarbital at a dose of 50 mg/kg. Through a small suprapubic incision, the urinary bladder was exposed and then infected by injecting 0.1 ml of a 1:10,000 dilution of Pseudomonas aeruginosa No. 12 cultured for 20 hours in trypto-soy broth, using 0.25 ml syringe with 0.25 mm needle. The mice were restrained from drinking water for a period from 1 day before to 1 day after the infection and treated twice a day for 3 days starting on the day of infection. On the 5th day after infection, the kidneys were harvested for the detection of the bacteria, transversely bisected and stamped on King A Agar, which were incubated at 37° C. overnight. No bacterial finding in the kidneys was regarded as protected from the ascending kindey infection. ED50 values were calculated by probit analysis.

[8] = system: Pseudomonas aeruginosa No. 12; assay: In vitro antibacterial activity (MIC), Pseudomonas aeruginosa No. 12; type: cell-based; settings: Pseudomonas aeruginosa No. 12; read-out: minimum inhibitory concentration (MIC)
Text: as §1

[9] = system: Pseudomonas aeruginosa No. 12; assay: in vivo efficacy against systemic infection in mice, Pseudomonas aeruginosa No. 12; settings: NO.12, in Mus musculus, po, 168 h
Procedure: Male mice (ddY) weighing about 20 g
(3) Pseudomonas aeruginosa No. 12;
(about 5 × 10^3 cells/mouse) of a bacterial
as §2, §3
The numerals in the table show ED50 (mg/kg). ED50 values were

Proteus mirabilis P-2381 = assay: In vitro antibacterial activity (MIC), Proteus mirabilis P-2381; type: cell-based
Text: as §1

[10] = system: Salmonella typhimurium 8-9; assay: In vitro antibacterial activity (MIC), Salmonella typhimurium 8-9; type: cell-based; settings: Salmonella enterica; Salmonella typhimurium 8-9; read-out: minimum inhibitory concentration (MIC)
Text: as §1

[11] = system: Staphylococcus aureus No. 50774; assay: in vivo efficacy against systemic infection in mice, Staphylococcus aureus No. 50774; settings: NO.50774, in Mus musculus, po, 336 h
Procedure: Male mice (ddY) weighing about 20 g
Intravenous infection with (about
5 × 10^8 cells/mouse) of a bacterial
as §3

[12] = system: Klebsiella pneumoniae No. 13; assay: In vitro antibacterial activity (MIC), Klebsiella pneumoniae No. 13; type: cell-based; settings: Klebsiella pneumoniae No. 13; read-out: minimum inhibitory concentration (MIC)
Text: as §1

[13] = system: Escherichia coli NIHJ JC-2; assay: In vitro antibacterial activity (MIC), Escherichia coli NIHJ JC-2; type: cell-based
Text: as §1

[14] = system: Staphylococcus aureus No. 50774; assay: In vitro antibacterial activity (MIC), Staphylococcus aureus No. 50774; type: cell-based; settings: Staphylococcus aureus No. 50774; read-out: minimum inhibitory concentration (MIC)
Text: as §1

[15] = system: Streptococcus faecalis P-2473; assay: In vitro antibacterial activity (MIC), Streptococcus faecalis P-2473; type: cell-based; settings: Enterococcus faecalis
Text: as §1

Shigella flexneri 2a = assay: In vitro antibacterial activity (MIC), Shigella flexneri 2a; type: cell-based; settings: read-out: minimum inhibitory concentration (MIC)
Text: as §1

Escherichia coli P-5101 [16] = assay: In vitro antibacterial activity (MIC), Escherichia coli P-5101; type: cell-based; settings: P5101; Escherichia coli P-5101; read-out: minimum inhibitory concentration (MIC)
Text: as §1

[17] = system: Serratia marcescens IFC 3736; assay: In vitro antibacterial activity (MIC), Serratia marcescens IFC 3736; type: cell-based
Text: as §1

[18] = system: Staphylococcus aureus 209P JC-1; assay: In vitro antibacterial activity (MIC), Staphylococcus aureus 209P JC-1; type: cell-based; settings: Staphylococcus aureus 209P JC-1; read-out: minimum inhibitory concentration (MIC)
Text: as §1

Proteus morganii Kono = assay: In vitro antibacterial activity (MIC), Proteus morganii Kono; type: cell-based; settings: Morganella morganii, read-out: minimum inhibitory concentration (MIC)
Text: as §1

[19] = Urinary excretion in dogs; type: in vivo, Beagle dogs
[20] = system: Gram-positive bacteria and Gram-negative bacteria; assay: In vitro antibacterial activity against 19 strains of bacteria (overall); type: cell-based; settings: comparisons are with compounds of the invention
Text: as §1

Plasma level in dogs = type: in vivo, Beagle dogs
Procedure: Two male Beagle dogs weighing 12 kg each were orally given a capsule containing one of compounds 1 and 2 at a dose of 25 mg/kg with 200 ml of milk respectively. Blood samples were taken by venipuncture from the two dogs at each 0.5, 1, 2, 3, 6, 8 and 10 hours after administration, and centrifuged individually to separate the plasma.
Drug levels were determined by the thin-layer cup-plate method using Escherichia coli Kp as an indicator organism.

in vivo = settings: mouse, in vivo, po
Procedure: The number of dead mice was counted after 7 days, and the value of median lethal dose (LD50, mg/kg) was calculated in accordance with the Behrens-Kaerber method.

[21] = system: Streptococcus pyogenes 65A; assay: In vitro antibacterial activity (MIC), Streptococcus pyogenes 65A; type: cell-based; settings: Streptococcus pyogenes 65A; read-out: minimum inhibitory concentration (MIC)
Text: as §1

[22] = system: Gram-positive and Gram-negative bacteria; assay: in vivo therapeutic efficacy against systemic infections in mice (overall); parameters: species or system mice (ddY)

## CCn1cc(C(=O)O)c(=O)c2cc(F)c(N3CCNCC3)cc21 [Compound D, 1-Ethyl-6-fluoro-1,4-dihydro-4-oxo-7-(1-piperazinyl)quinoline-3-carboxylic acid]
Escherichia coli P-140a; Escherichia coli
  MIC: 0.1 µg/mL (≈ 0.313 µM)
[1]
  MIC: 0.05 µg/mL (≈ 0.157 µM)
[2]; Enterobacter cloacae, P2540, read-out: minimum inhibitory concentration (MIC)
  MIC: 0.1 µg/mL (≈ 0.313 µM)
Escherichia coli P-5101 [3]
  ED50: 4.7 mg/kg
[4]; Pseudomonas aeruginosa Tsuchijima
  MIC: 0.39 µg/mL (≈ 1.22 µM)
[5]
  MIC: 0.2 µg/mL (≈ 0.626 µM)
[6]
  MIC: 0.78 µg/mL (≈ 2.44 µM)
[7]
  ED50: 16.1 mg/kg
[8]
  MIC: 0.78 µg/mL (≈ 2.44 µM)
[9]
  ED50: 15.5 mg/kg
Proteus mirabilis P-2381; P2381, Proteus mirabilis P-2381, read-out: minimum inhibitory concentration (MIC)
  MIC: 0.2 µg/mL (≈ 0.626 µM)
[10]
  MIC: 0.05 µg/mL (≈ 0.157 µM)
[11]
  ED50: 21.9 mg/kg
[12]
  MIC: 0.2 µg/mL (≈ 0.626 µM)
[13]; Escherichia coli, NIHJJC2, read-out: minimum inhibitory concentration (MIC)
  MIC: 0.1 µg/mL (≈ 0.313 µM)
[14]
  MIC: 0.78 µg/mL (≈ 2.44 µM)
[15]; P2473, read-out: minimum inhibitory concentration (MIC)
  MIC: 3.13 µg/mL (≈ 9.8 µM)
Shigella flexneri 2a
  MIC: 0.1 µg/mL (≈ 0.313 µM)
Escherichia coli P-5101 [16]
  MIC: 0.05 µg/mL (≈ 0.157 µM)
[17]; IFC3736, Serratia marcescens IFC 3736, read-out: minimum inhibitory concentration (MIC)
  MIC: 0.2 µg/mL (≈ 0.626 µM)
[18]
  MIC: 0.39 µg/mL (≈ 1.22 µM)
Proteus morganii Kono
  MIC: 0.1 µg/mL (≈ 0.313 µM)

## C=Cn1cc(C(=O)O)c(=O)c2cc(F)c(N3CCNCC3)nc21 [Compound 2, 6-Fluoro-1,4-dihydro-4-oxo-7-(1-piperazinyl)-1-vinyl-1,8-naphthyridine-3-carboxylic acid]
Escherichia coli P-140a; P140A, Escherichia coli P-140a
  MIC: 0.1 µg/mL (≈ 0.314 µM)
[1]
  MIC: 0.05 µg/mL (≈ 0.157 µM)
[2]; P2540, Enterobacter cloacae P-2540, read-out: minimum inhibitory concentration (MIC)
  MIC: 1 µg/mL (≈ 3.14 µM)
[19]; 24 hours
  urinary excretion (in words): fairly good
[19]; dog, urine, po, 25 mg/kg, urine pooled over 24 hours, oral 25 mg/kg
  concentration at 24 h: 326000 ng/mL
[19]; dog, urine, po, 25 mg/kg, urine pooled over 24 hours, oral 25 mg/kg, read-out: urinary recovery
  dose excreted at 24 h: 29.4%
Escherichia coli P-5101 [3]
  ED50: 1.3 mg/kg
[20]
  antibacterial activity (in words): very high antibacterial activities
Plasma level in dogs; dog, plasma, 2 hr after oral 25 mg/kg
  concentration at 2 h: 1500 ng/mL
Plasma level in dogs; dog, plasma, 3 hr after oral 25 mg/kg
  concentration at 3 h: 2800 ng/mL
Plasma level in dogs; dog, plasma, 6 hr after oral 25 mg/kg
  concentration at 6 h: 5500 ng/mL
Plasma level in dogs; dog, plasma, 8 hr after oral 25 mg/kg
  concentration at 8 h: 5200 ng/mL
Plasma level in dogs; dog, plasma, 10 hr after oral 25 mg/kg
  concentration at 10 h: 4400 ng/mL
Plasma level in dogs; oral 25 mg/kg
  absorption in the body by oral administration (in words): well absorbed
  period after administration with plasma level higher than the MIC values against most bacteria: at least 2 hours to even more than 10 hours
In vivo
  LD50 at 168 h: > 4000 mg/kg
[4]; Pseudomonas aeruginosa
  MIC: 0.2 µg/mL (≈ 0.628 µM)
[5]
  MIC: 0.2 µg/mL (≈ 0.628 µM)
[6]
  MIC: 1.56 µg/mL (≈ 4.9 µM)
[7]
  ED50: 0.56 mg/kg
[7]; compounds 1 and 2 (1, 1' and 2 elsewhere in the source) compared with compound D
  therapeutic effect against ascending kidney infection (in words): clearly better than that of compound D
[8]
  MIC: 0.39 µg/mL (≈ 1.23 µM)
[9]
  ED50: 2.4 mg/kg
Proteus mirabilis P-2381; Proteus mirabilis, P2381, read-out: minimum inhibitory concentration (MIC)
  MIC: 0.2 µg/mL (≈ 0.628 µM)
[10]
  MIC: 0.05 µg/mL (≈ 0.157 µM)
[11]
  ED50: 33.4 mg/kg
[21]
  MIC: 12.5 µg/mL (≈ 39.3 µM)
[12]
  MIC: 0.1 µg/mL (≈ 0.314 µM)
[13]; NIHJJC2, Escherichia coli NIHJ JC-2, read-out: minimum inhibitory concentration (MIC)
  MIC: 0.1 µg/mL (≈ 0.314 µM)
[14]
  MIC: 3.13 µg/mL (≈ 9.83 µM)
[15]; P2473, Streptococcus faecalis P-2473, read-out: minimum inhibitory concentration (MIC)
  MIC: 25 µg/mL (≈ 78.5 µM)
Shigella flexneri 2a
  MIC: 0.1 µg/mL (≈ 0.314 µM)
Escherichia coli P-5101 [16]
  MIC: 0.05 µg/mL (≈ 0.157 µM)
[22]; Gram-negative including Pseudomonas aeruginosa
  therapeutic effect in vivo against Gram-negative bacteria, relative to compound D: clearly better
[22]; systemic infection, Gram-negative
  therapeutic effect against Gram-negative bacteria, relative to compound 1 or 1': superior
[22]; systemic infection, Gram-negative, especially Pseudomonas aeruginosa
  therapeutic effect against Gram-negative bacteria, relative to compounds A, C, E, F, G, H and J: better therapeutic effects
[22]; systemic infection, Gram-positive
  therapeutic effect against Gram-positive bacteria, relative to compound 1 or 1': inferior
[17]; Serratia marcescens, IFC3736, read-out: minimum inhibitory concentration (MIC)
  MIC: 0.2 µg/mL (≈ 0.628 µM)
[18]
  MIC: 1.56 µg/mL (≈ 4.9 µM)
Proteus morganii Kono; Proteus morganii Kono
  MIC: 0.1 µg/mL (≈ 0.314 µM)
